Blank lines part the entries; values can stand above or below the molecule they belong to. Where no end group is shown, it is not given here.
Columns and labels:
[1] = target: T1, fibronectin (Homo sapiens, UniProt P02751); test: Direct binding of 125I-fibronectin to immobilized peptides
Procedure: Fibronectin was isolated from platelet-depleted plasma as described (Ariyama, et al. 1985, J. Biol. Chem. 260:4492-4500) and iodinated using Iodogen (Pierce Chemical Co., Rockford, Ill.) as described (Roberts, et al. 1987, J. Cell. Biol. 104:131-139).
Direct binding of the fibronectin to immobilized peptides was carried out by first absorbing the peptides on polyvinyl chloride microtiter wells for 3 hours at 25° C. at the indicated concentrations. Unbound peptides were removed by washing and wells were incubated for 30 minutes in tris-BSA (50 mM tris-HCl, pH7-8, 110 mm NaCl, 1% BSA) (Sigma fatty acid and globulin-free, 0.1% NaN3). The wells were washed and incubated with […] of 0.5 μg/ml ^125 I-fibronectin for 2 hours at 25° C. The wells were washed five times with Dulbecco's phosphate buffered saline and cut from the plate and bound radioactivity was counted.
The peptides listed in Table 1 were synthesized as described above and absorbed to microtiter wells. […] This peptide sequence is located in the second type I repeat of the human-ThbsI gene.

[2] = target: T1, fibronectin; test: Inhibition of 125I-fibronectin binding to immobilized peptide GlyGlyTrpSerHisTrp; details: wells coated with 50 μg/ml peptide; 0.5 μg/ml 125I-fibronectin
Procedure: Microtiter plate wells were coated with 50 μg/ml of peptide GlyGlyTrpSerHisTrp (SEQ ID NO: 1) as in Example 1. Binding of ^125 I-fibronectin (0.5 μg/ml) to bound peptide was determined in the presence of increasing amounts of the peptides: FIG. 2A: the peptides are GlyGlyTrpSerHisTrp (SEQ ID NO: 1) (.circle-solid.); GlyGlyTrpSerLysTrp (SEQ ID NO: 9) (.tangle-solidup.); GlyGlyTyrSerHisTrp (SEQ ID NO: 10) (.box-solid.) and GlyGlyTrpSerHisTyr (SEQ ID NO: 11) (.tangle-soliddn.); FIG. 2B: GlyGlyTrpSerHisTrp (SEQ ID NO: 1) (-); GlyGlyTrpThrHisTrp (SEQ ID NO: 12) (.tangle-solidup.); GlyGlyTrpAlaHisTrp (SEQ ID NO: 13) (.box-solid.); GlyTrpSerHisTrp (SEQ ID NO: 14) (+); AlaAlaTrpSerHisTrp (SEQ ID NO: 21) (.tangle-soliddn.); and AspGlyTrpSerHisTrp (SEQ ID NO: 22) (.quadrature.).
Binding of ^125 1-fibronectin (0.5 μg/ml) to microtiter plate wells coated with 50 μg/ml of peptide GlyGlyTrpSerHisTrp (SEQ ID NO: 1) was determined in the presence of synthetic peptide GlyGlyTrpSerHisTrp (SEQ ID NO: 1), fibronectin or thrombospondin.
Microtiter plates were coated with 50 μg/ml of synthetic peptide GlyGlyTrpSerHisTrp (SEQ ID NO: 1) as described in Example 1. Binding of 125I-fibronectin (0.5 μg/ml) to the bound peptide was determined in the presence of proteolytic fragments of fibronectin, which were obtained from Telios Pharmaceuticals, Inc. San Diego, Calif. The proteolytic fragments included intact fibronectin; 30 kDa gelatin-binding domain; 33 kDa recombinant cell binding domain; 28 kDa recombinant cell binding domain and transferrin.

[3] = target: T1, fibronectin; test: Inhibition of fibronectin binding to immobilized native type I collagen
Procedure: (§1) Wells of a microtiter plate were incubated for 3 hours at 25° C. with […] gelatin in Dulbecco's PBS. The wells were emptied and incubated with Dulbecco's PBS containing 1% BSA for 30 minutes. The wells were emptied and incubated with 0.5 μg/ml ^125 I-fibronectin in the presence of peptide GlyGlyTrpSerHisTrp (SEQ ID NO: 1) (.circle-solid.); GlyGlyTrpSerLysTrp (SEQ ID NO: 9) (.tangle-solidup.); GlyGlyTyrSerHisTrp (SEQ ID NO: 10) (.box-solid.); or GlyGlyTrpSerHisTyr (SEQ ID NO: 11) (.tangle-soliddn.) for 2 hours at 25° C. The wells were washed 4 times with PBS, cut from the plate and the bound radioactivity was counted.
A ligand binding assay as described in Example 5 was performed except that microtiter plates were coated with immobilized native type I collagen in place of gelatin.

[4] = target: T1, fibronectin; test: Inhibition of 125I-fibronectin binding to gelatin; details: 0.5 μg/ml 125I-fibronectin, 2 hours at 25° C.
Procedure: as §1

T1 sequence (P02751 32-2477): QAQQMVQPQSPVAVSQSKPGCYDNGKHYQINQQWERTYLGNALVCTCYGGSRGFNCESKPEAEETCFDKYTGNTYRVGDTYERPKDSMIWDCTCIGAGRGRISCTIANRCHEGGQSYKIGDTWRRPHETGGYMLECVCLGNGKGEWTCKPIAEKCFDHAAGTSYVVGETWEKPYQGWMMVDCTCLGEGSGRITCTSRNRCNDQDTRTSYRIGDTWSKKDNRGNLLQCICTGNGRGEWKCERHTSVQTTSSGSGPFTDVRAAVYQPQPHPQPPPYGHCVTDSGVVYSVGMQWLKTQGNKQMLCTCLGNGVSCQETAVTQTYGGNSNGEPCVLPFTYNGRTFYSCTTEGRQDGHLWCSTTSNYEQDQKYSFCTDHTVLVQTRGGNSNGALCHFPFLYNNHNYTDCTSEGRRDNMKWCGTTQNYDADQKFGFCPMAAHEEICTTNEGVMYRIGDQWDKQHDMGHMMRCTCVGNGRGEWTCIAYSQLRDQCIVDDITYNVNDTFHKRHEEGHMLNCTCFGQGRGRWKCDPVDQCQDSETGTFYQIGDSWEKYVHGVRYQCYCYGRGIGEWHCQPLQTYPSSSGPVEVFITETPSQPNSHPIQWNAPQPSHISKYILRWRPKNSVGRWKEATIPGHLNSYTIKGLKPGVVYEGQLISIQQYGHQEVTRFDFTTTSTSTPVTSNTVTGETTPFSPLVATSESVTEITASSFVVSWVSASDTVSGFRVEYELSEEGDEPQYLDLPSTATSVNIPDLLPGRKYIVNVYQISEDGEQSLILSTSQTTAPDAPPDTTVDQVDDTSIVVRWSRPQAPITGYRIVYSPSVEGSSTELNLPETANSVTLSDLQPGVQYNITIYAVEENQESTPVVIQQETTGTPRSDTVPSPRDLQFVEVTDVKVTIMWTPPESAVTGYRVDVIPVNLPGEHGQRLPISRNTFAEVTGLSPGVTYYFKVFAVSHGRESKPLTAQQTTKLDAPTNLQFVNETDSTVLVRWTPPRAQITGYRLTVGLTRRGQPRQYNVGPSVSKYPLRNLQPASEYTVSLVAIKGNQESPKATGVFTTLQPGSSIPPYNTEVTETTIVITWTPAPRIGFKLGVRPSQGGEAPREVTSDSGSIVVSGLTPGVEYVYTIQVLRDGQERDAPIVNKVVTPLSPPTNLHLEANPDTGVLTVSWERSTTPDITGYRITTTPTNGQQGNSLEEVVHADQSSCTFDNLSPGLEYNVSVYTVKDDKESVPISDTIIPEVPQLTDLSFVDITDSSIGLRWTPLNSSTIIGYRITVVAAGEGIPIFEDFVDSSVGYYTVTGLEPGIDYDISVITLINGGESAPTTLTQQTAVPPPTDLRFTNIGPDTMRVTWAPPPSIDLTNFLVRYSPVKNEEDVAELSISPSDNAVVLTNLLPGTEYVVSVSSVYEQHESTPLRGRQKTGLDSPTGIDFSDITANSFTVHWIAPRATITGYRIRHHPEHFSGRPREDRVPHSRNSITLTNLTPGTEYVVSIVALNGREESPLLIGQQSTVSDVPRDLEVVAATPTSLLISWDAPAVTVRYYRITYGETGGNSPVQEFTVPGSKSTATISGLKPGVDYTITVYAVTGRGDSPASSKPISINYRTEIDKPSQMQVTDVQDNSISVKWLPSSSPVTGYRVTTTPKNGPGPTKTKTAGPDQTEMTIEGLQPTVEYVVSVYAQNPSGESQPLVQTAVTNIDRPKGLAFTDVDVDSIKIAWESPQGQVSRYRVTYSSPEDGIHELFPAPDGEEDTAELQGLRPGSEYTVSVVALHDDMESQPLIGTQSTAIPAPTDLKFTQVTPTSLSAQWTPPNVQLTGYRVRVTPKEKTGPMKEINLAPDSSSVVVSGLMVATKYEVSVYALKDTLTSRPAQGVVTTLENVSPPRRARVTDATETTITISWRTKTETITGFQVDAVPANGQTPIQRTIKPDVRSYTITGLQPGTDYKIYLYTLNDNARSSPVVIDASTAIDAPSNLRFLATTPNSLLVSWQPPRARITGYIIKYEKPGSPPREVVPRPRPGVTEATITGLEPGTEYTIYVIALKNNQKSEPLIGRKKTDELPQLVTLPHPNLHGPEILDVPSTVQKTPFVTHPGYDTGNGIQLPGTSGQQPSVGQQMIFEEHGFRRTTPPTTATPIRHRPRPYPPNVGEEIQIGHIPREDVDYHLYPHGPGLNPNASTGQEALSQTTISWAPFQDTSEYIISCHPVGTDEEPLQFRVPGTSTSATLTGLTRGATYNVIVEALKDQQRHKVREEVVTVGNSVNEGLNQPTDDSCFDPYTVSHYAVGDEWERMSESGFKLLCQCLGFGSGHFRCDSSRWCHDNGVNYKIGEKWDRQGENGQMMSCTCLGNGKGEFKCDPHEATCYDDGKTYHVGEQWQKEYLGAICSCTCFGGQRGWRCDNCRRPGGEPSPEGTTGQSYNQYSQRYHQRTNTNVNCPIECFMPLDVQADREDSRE

Molecule: fetuin: control protein [reference compound]
- IC50 for competition of 125I-fibronectin binding to peptide GlyGlyTrpSerHisTrp [2]: > 200 µg/mL

Molecule: GGWSHW [Peptide 300, GGWSHW]
- IC50 [2]: 27 µM
- IC50 [3]: 40 µM

Molecule: transferrin [reference compound]
- IC50 for competition of 125I-fibronectin binding to peptide GlyGlyTrpSerHisTrp [2]: > 200 µg/mL

Molecule: GGYSHW [GlyGlyTyrSerHisTrp]
- inhibition of fibronectin binding to immobilized peptide GlyGlyTrpSerHisTrp (in words) [2]: inactive
- inhibition of fibronectin binding to gelatin (in words) [4]: inactive
- inhibition of fibronectin binding to type I collagen (in words) [3]: inactive

Molecule: GGWSKW [GlyGlyTrpSerLysTrp]
- inhibition of fibronectin binding to immobilized peptide GlyGlyTrpSerHisTrp (in words) [2]: inactive
- inhibition of fibronectin binding to gelatin (in words) [4]: inactive
- inhibition of fibronectin binding to type I collagen (in words) [3]: inactive

Molecule: fibronectin
- inhibition of fibronectin binding to immobilized peptide GlyGlyTrpSerHisTrp (in words) [2]: competed

Molecule: AAWSHW [AlaAlaTrpSerHisTrp]
- inhibition of fibronectin binding to type I collagen (in words) [3]: inactive

Molecule: WSHWSP [Peptide 292, WSHWSP]
- inhibition of fibronectin binding to type I collagen (in words) [3]: inactive

B1: ovalbumin: control protein (protein, UniProt P01012 2-386, looked up)
Ovalbumin: GSIGAASMEFCFDVFKELKVHHANENIFYCPIAIMSALAMVYLGAKDSTRTQINKVVRFDKLPGFGDSIEAQCGTSVNVHSSLRDILNQITKPNDVYSFSLASRLYAEERYPILPEYLQCVKELYRGGLEPINFQTAADQARELINSWVESQTNGIIRNVLQPSSVDSQTAMVLVNAIVFKGLWEKAFKDEDTQAMPFRVTEQESKPVQMMYQIGLFRVASMASEKMKILELPFASGTMSMLVLLPDEVSGLEQLESIINFEKLTEWTSSNVMEERKIKVYLPRMKMEEKYNLTSVLMAMGITDVFSSSANLSGISSAESLKISQAVHAAHAEINEAGREVVGSAEAGVDAASVSEEFRADHPFLFCIKHIATNAVLFFGRCVSP
- IC50 for competition of 125I-fibronectin binding to peptide GlyGlyTrpSerHisTrp [2]: > 200 µg/mL

Further lines, results first:

- binding of fibronectin to peptide (in words) [1]: inactive
Molecule: GGWGPW [Peptide 318, GGWGPW]

- inhibition of fibronectin binding to type I collagen (in words) [3]: inactive
Molecule: GGWTHW [GlyGlyTrpThrHisTrp]

- inhibition of fibronectin binding to immobilized peptide GlyGlyTrpSerHisTrp (in words) [2]: competed
Molecule: thrombospondin: Human platelet thrombospondin, purified

- binding of fibronectin to peptide (in words) [1]: inactive
Molecule: DGWSPW [Peptide 317, DGWSPW]

- inhibition of fibronectin binding to immobilized peptide GlyGlyTrpSerHisTrp (in words) [2]: inactive
- inhibition of fibronectin binding to gelatin (in words) [4]: inactive
- inhibition of fibronectin binding to type I collagen (in words) [3]: inactive
Molecule: GGWSHY [GlyGlyTrpSerHisTyr]

- inhibition of fibronectin binding to type I collagen (in words) [3]: inactive
Molecule: DGWSHW [AspGlyTrpSerHisTrp]
